Our source for the Activity and Selectivity index values is ChEMBL document CHEMBL1147191, “Structure-activity relationship studies on anti-HCV activity of ring-expanded ('fat') nucleobase analogues containing the imidazo[4,5-e][1,3]diazepine-4,8-dione ring system” (Bioorg Med Chem Lett, 2007).

Data set [1] is described as follows: Cytotoxicity against Huh7 ET cells assessed as beta actin level relative to control. The data set is classed as cell-based. The arrangement: concentration or dose not given beside the values. As to conditions: human.
The subject of data set [2] is Hepatitis C virus. Nature of the data set: Antiviral activity against HCV in Huh7 ET cells assessed as HCV RNA derived luciferase activity at 10 uM by replicon assay relative to control. Type of data set: functional, Hepacivirus hominis. On the technique in general: A replicon is a self-replicating genome or part of one, used to study replication in cells.
Data set [3] is described as follows: Selectivity index, ratio of toxicity against Huh7 ET cells to viral activity against HCV. Type of data set: functional.

The structures appear in SMILES notation.

Turning to `CCCCCCCCNc1nc(=O)c2c(nc(C#CCCO)n2Cc2ccc(OC)cc2)c(=O)[nH]1`, the Activity in data set [1] was 52%; in data set [2], 90%. In data set [3], the Selectivity index turned out to be 0.578.
Regarding `CCCCCCCCNc1nc(=O)c2c(nc(-c3ccc(OC)cc3)n2Cc2ccc(OC)cc2)c(=O)[nH]1`, the Activity in data set [1] is 79%; in data set [2] it was 54%. The Selectivity index in data set [3] was 1.463.
For `NC(=O)c1ncn([C@@H]2O[C@H](CO)[C@@H](O)[C@H]2O)n1` [RIBAVIRIN], the values for the Activity in data set [1] and in data set [2] were 12% and 89%, respectively. For the same compound, the Selectivity index in data set [3] is given as 0.42.
As for `CCCCCCCCNc1nc(=O)c2c(nc(Br)n2Cc2ccc(OC)cc2)c(=O)[nH]1`, the figures for the Activity in data set [1] and in data set [2] were 69% and 32%, respectively. Further, the Selectivity index in data set [3] was found to be 2.155.
As to `CCCCCCCCNc1nc(=O)c2c(nc(-c3ccccc3)n2Cc2ccc(OC)cc2)c(=O)[nH]1`, the Activity is 82% in data set [1] and 88% in data set [2]. Moreover, the Selectivity index in data set [3] came to 0.932.
